Where a name gives a salt, the structure may show the parent alone.
What was measured:
[1] = Naloxone HCl precipitation after freeze/thaw; assay type: physicochemical
Description: However, the solution remained opaque when thawed, and precipitation was evident. […] The precipitate could not be re-dissolved in solution following sonication. […]

[2] = Naloxone stability (visual precipitation) during storage at 4° C.; assay type: physicochemical
[3] = per 100 mL: EDTA-Na2 0 mg, PG 5% w/v
[4] = per 100 mL: EDTA-Na2 0 mg, PG 10% w/v
[5] = per 100 mL: EDTA-Na2 0 mg, PG 20% w/v
[6] = per 100 mL: EDTA-Na2 100 mg, PG 5% w/v
[7] = per 100 mL: EDTA-Na2 100 mg, PG 10% w/v
[8] = per 100 mL: EDTA-Na2 100 mg, PG 20% w/v

## C=CCN1CC[C@]23c4c5ccc(O)c4O[C@H]2C(=O)CC[C@@]3(O)[C@H]1C5 [naloxone HCl]
[1]; per mL: NaCl 3.7 mg, EDTA-Na2 2.0 mg, PG 20% w/v, EtOH 0% w/v, 1 freeze/thaw cycle
  Naloxone precipitation?: yes
[1]; per mL: NaCl 7.4 mg, EDTA-Na2 0.0 mg, PG 5% w/v, EtOH 0% w/v, 3 freeze/thaw cycles
  Naloxone precipitation?: No
[1]; per mL: NaCl 7.4 mg, EDTA-Na2 0.0 mg, PG 10% w/v, EtOH 0% w/v, 3 freeze/thaw cycles
  Naloxone precipitation?: no
[1]; per mL: NaCl 7.4 mg, EDTA-Na2 0.0 mg, PG 20% w/v, EtOH 0% w/v, 3 freeze/thaw cycles
  Naloxone precipitation?: no
[1]; per mL: NaCl 7.4 mg, EDTA-Na2 1.0 mg, PG 5% w/v, EtOH 0% w/v, 3 freeze/thaw cycles
  Naloxone precipitation?: no
[1]; per mL: NaCl 7.4 mg, EDTA-Na2 1.0 mg, PG 10% w/v, EtOH 0% w/v, 3 freeze/thaw cycles
  Naloxone precipitation?: no
[1]; per mL: NaCl 7.4 mg, EDTA-Na2 1.0 mg, PG 20% w/v, EtOH 0% w/v, 4 freeze/thaw cycles
  Naloxone precipitation?: no
[1]; per mL: NaCl 7.4 mg, EDTA-Na2 1.0 mg, PG 20% w/v, EtOH 0% w/v, 7 freeze/thaw cycles
  Naloxone precipitation?: no
[1]; per mL: NaCl 7.4 mg, EDTA-Na2 2.0 mg, PG 10% w/v, EtOH 0% w/v, 1 freeze/thaw cycle
  Naloxone precipitation?: yes
[1]; per mL: NaCl 7.4 mg, EDTA-Na2 2.0 mg, PG 20% w/v, EtOH 0% w/v, 1 freeze/thaw cycle
  Naloxone precipitation?: yes
[1]; per mL: NaCl 7.4 mg, EDTA-Na2 2.0 mg, PG 20% w/v, EtOH 2% w/v, 1 freeze/thaw cycle
  Naloxone precipitation?: yes
[1]; per mL: NaCl 7.4 mg, EDTA-Na2 2.0 mg, PG 20% w/v, EtOH 5% w/v, 1 freeze/thaw cycle
  Naloxone precipitation?: yes
[1]; per mL: NaCl 7.4 mg, EDTA-Na2 2.0 mg, PG 20% w/v, EtOH 10% w/v, 1 freeze/thaw cycle
  Naloxone precipitation?: yes
[1]; per mL: NaCl 7.4 mg, EDTA-Na2 2.0 mg, PG 30% w/v, EtOH 0% w/v, 1 freeze/thaw cycle
  Naloxone precipitation?: yes

## C=CCN1CC[C@]23c4c5ccc(O)c4O[C@H]2C(=O)CC[C@@]3(O)[C@H]1C5 [Naloxone]
[2]; [3]
  Observed naloxone precipitation 24 days: No
  Observed naloxone precipitation 35 days: No
  Observed naloxone precipitation 53 days: No
[2]; [4]
  Observed naloxone precipitation 24 days: No
  Observed naloxone precipitation 35 days: No
  Observed naloxone precipitation 53 days: No
[2]; [5]
  Observed naloxone precipitation 24 days: No
  Observed naloxone precipitation 35 days: No
  Observed naloxone precipitation 53 days: No
[2]; [6]
  Observed naloxone precipitation 24 days: No
  Observed naloxone precipitation 35 days: No
  Observed naloxone precipitation 53 days: No
[2]; [7]
  Observed naloxone precipitation 24 days: No
  Observed naloxone precipitation 35 days: No
  Observed naloxone precipitation 53 days: No and Slight
[2]; [8]
  Observed naloxone precipitation 24 days: No and Slight
  Observed naloxone precipitation 35 days: No and Yes
  Observed naloxone precipitation 53 days: No and Yes
